The values that follow come from ChEMBL document CHEMBL3400059, “Synthesis and structure-activity relationships of a series of 4-methoxy-3-(piperidin-4-yl)oxy benzamides as novel inhibitors of the presynaptic choline transporter” (Bioorg Med Chem Lett, 2015).

Active and inactive are the calls of the source. No cut-off for these calls is given here. Some results are limits rather than exact numbers.

The subject of data set [1] is T1, High affinity choline transporter 1 (Homo sapiens), Q9GZV3 [L531A,V532A].
T1 sequence (whole entry): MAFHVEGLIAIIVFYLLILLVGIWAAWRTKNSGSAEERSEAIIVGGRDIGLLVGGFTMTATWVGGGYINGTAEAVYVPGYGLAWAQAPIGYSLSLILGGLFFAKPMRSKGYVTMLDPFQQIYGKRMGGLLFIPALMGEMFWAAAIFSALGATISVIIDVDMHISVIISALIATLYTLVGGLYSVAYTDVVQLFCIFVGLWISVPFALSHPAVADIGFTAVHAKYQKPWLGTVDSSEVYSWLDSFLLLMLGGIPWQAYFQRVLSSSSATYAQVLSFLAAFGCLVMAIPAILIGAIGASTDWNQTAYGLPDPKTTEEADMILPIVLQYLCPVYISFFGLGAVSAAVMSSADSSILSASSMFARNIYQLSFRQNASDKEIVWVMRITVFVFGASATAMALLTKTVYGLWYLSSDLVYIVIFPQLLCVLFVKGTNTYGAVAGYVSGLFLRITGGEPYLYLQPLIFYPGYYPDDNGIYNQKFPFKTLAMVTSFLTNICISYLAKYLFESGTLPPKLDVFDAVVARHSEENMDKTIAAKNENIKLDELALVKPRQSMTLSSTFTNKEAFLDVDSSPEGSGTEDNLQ
Put plainly: Inhibition of human CHT […] mutant expressed in HEK293 cells assessed as remaining transporter activity at 5 uM in presence of 100 nM [3H]choline by [3H]choline uptake assay. The format is cell-based.

Data set [2] shares this test system. Put plainly: Inhibition of human CHT […] mutant expressed in HEK293 cells assessed as remaining transporter activity at 5 uM in presence of 10 uM [3H]choline by [3H]choline uptake assay. The format is cell-based.
Data set [3] concerns the target T2, High affinity choline transporter 1 (Homo sapiens, UniProt Q9GZV3, L531A/V532A). Put plainly: Inhibition of human CHT […] mutant expressed in HEK293 cells by membrane depolarization assay. It counts as cell-based.
The target of data set [4] is T2, High affinity choline transporter 1. Put plainly: Inhibition of human CHT […] mutant expressed in HEK293 cells assessed as remaining transporter activity in presence of 100 nM [3H]choline by [3H]choline uptake assay. It counts as cell-based.
For data set [5] the target is unchanged. Put plainly: Inhibition of human CHT […] mutant expressed in HEK293 cells assessed as remaining transporter activity in presence of 10 uM [3H]choline by [3H]choline uptake assay. It counts as cell-based.
The test system of data set [6] is Plasma. Put plainly: Fraction unbound in mouse plasma by equilibrium dialysis method. The format is ADME, cell-free. (In equilibrium dialysis free small molecules cross a membrane that holds back macromolecules.)
The target of data set [7] is T3, Cytochrome P450 1A2 (Homo sapiens, UniProt P05177).
T3 sequence (P05177 whole entry): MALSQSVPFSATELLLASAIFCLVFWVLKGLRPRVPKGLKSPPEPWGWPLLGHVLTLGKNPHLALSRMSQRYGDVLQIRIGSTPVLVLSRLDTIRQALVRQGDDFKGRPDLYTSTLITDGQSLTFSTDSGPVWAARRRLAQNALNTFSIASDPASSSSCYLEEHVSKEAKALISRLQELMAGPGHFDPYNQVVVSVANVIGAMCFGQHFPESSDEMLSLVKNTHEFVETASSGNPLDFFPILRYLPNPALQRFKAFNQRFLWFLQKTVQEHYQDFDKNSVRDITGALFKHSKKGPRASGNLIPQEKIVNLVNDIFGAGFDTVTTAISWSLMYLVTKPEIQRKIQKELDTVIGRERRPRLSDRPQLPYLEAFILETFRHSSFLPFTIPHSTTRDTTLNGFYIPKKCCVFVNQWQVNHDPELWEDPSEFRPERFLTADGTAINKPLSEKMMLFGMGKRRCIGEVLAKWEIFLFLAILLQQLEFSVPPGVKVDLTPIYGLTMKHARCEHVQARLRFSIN
Put plainly: Inhibition of human CYP1A2. It counts as ADME.

The target of data set [8] is Cytochrome P450 2C9 (Homo sapiens, UniProt P11712). Put plainly: Inhibition of human CYP2C9. It counts as ADME.
Data set [9] concerns the target Cytochrome P450 2D6 (Homo sapiens, UniProt P10635). Put plainly: Inhibition of human CYP2D6. The format is ADME.
For data set [10], the target named is Cytochrome P450 3A4 (Homo sapiens, UniProt P08684). Put plainly: Inhibition of human CYP3A4. The format is ADME.
Data set [11] deals with Brain. Put plainly: Drug level in mouse brain at 1 mg/kg, ip administered as cassette dosing. Set-up: dose 1 mg/kg, route intraperitoneal. Conditions: in vivo. The format is ADME, organism-based.
Data set [12] is described as follows: Ratio of drug level in brain to plasma in mouse at 1 mg/kg, ip administered as cassette dosing. Set-up: dose 1 mg/kg, route intraperitoneal. The format is ADME, organism-based.
Data set [13] is described as follows: Hepatic clearance in mouse liver microsomes. It counts as ADME. Background: Liver microsomes are a subcellular fraction often used to study metabolism.
The target in data set [14] is Sodium-dependent dopamine transporter (Homo sapiens) (UniProt Q01959). Put plainly: Inhibition of DAT (unknown origin).
Chain of Sodium-dependent dopamine transporter (Homo sapiens) (Q01959 whole entry): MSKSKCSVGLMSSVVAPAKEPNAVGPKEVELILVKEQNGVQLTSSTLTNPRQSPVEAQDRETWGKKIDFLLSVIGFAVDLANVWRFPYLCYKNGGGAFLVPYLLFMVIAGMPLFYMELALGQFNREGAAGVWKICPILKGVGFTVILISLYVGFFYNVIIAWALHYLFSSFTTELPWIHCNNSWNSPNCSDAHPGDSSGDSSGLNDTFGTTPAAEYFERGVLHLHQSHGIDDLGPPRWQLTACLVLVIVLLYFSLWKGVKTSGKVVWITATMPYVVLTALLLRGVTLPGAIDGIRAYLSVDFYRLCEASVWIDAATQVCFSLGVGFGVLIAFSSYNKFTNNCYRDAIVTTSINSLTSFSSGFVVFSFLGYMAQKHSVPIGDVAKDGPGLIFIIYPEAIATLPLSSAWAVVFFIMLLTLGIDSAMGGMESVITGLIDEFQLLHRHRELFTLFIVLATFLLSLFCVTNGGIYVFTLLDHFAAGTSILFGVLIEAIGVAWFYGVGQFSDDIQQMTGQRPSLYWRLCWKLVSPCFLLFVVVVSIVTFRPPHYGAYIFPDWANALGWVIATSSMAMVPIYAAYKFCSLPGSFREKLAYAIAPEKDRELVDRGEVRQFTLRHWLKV

Chain of Cytochrome P450 2C9 (P11712 whole entry): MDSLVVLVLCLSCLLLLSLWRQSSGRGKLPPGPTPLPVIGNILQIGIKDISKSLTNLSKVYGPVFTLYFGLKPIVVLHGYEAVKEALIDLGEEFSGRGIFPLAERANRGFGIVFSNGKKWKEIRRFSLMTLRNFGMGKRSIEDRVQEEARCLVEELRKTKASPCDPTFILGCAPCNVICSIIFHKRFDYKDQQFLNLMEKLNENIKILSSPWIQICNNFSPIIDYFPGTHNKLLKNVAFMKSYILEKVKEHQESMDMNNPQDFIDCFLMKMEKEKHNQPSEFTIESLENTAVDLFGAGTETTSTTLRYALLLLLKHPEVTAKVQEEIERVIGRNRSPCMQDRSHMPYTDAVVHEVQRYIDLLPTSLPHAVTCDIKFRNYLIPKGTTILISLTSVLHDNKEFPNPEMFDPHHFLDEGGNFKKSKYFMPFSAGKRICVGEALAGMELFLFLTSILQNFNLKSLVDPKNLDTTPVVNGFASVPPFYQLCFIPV
Chain of Cytochrome P450 2D6 (P10635 whole entry): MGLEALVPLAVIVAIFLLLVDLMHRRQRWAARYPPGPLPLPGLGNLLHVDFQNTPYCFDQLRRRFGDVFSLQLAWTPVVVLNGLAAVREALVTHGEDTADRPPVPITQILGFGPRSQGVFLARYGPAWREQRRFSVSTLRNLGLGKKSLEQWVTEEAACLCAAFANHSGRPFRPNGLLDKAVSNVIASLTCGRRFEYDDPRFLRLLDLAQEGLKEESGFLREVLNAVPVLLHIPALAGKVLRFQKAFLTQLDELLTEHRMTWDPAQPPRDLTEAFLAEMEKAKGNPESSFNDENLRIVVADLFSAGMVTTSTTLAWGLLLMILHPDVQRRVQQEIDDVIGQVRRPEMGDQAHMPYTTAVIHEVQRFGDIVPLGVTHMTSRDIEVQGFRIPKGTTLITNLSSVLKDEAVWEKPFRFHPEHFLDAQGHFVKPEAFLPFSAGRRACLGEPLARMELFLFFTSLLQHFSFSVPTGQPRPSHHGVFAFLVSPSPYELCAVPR
Chain of Cytochrome P450 3A4 (P08684 whole entry): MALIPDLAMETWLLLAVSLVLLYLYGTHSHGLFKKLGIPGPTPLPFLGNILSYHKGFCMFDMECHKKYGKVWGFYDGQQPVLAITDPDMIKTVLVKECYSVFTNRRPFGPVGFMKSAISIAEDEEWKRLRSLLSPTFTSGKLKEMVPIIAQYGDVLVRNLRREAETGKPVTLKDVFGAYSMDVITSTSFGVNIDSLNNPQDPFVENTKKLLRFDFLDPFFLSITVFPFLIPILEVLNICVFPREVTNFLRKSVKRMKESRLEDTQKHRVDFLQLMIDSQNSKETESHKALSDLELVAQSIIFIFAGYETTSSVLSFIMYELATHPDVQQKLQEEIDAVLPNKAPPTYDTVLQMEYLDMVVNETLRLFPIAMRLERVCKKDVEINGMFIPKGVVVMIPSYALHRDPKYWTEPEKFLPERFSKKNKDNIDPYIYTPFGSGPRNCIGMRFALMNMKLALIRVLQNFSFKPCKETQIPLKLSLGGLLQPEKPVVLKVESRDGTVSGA

For `COc1ccc(C(=O)NCc2cc(C(C)C)no2)cc1OC1CCNCC1`, the Activity in [1] amounted to 51.5%; in data set [2], 18.6%.
In the same order, the values of `COc1ccc(C(=O)NCc2cc(C(C)C)no2)cc1OC1CCCC1` are 82% and 81.3%.
In the same order, the values of `COc1ccc(C(=O)NCc2ccc(C)s2)cc1OC1CCN(C(C)C)CC1` are 76.4% and 36.7%.
In the same order, the values of `COc1ccc(C(=O)NCc2cc(C(C)C)no2)cc1OCCN1CCCC1` are 50.1% and 29.8%.
`COc1ccc(C(=O)NCCC2=CCCCC2)cc1OC1CCN(C(C)C)CC1` came in with an IC50 in data set [3] of 3.16 µM.
On to `COc1ccc(C(=O)NCc2cc(C(C)C)no2)cc1OCCN1CCOCC1`, for which the Activity in [1] turned out to be 36.7%; in data set [2], 32.1%. Also, the IC50 in [4] turned out to be 6.12 µM; in data set [5], 1.77 µM.
Consider `COc1ccc(C(=O)NCc2cc(C)n(C)n2)cc1OC1CCN(C(C)C)CC1`, for which the Activity in data set [1] was 49.9%; in data set [2], 29.4%. The values for the IC50 in data set [4] and in [5] were 8.09 µM and 2.51 µM, respectively.
On to `COc1ccc(C(=O)NCc2cc(C(C)C)no2)cc1OC1CCN(C(C)C)CC1`, for which the Activity is 10.9% in [1] and -2.8% in [2]. In addition, in data set [6], the Fu stood at 0.57. The IC50 in data set [7], in data set [8], in data set [9] and in data set [10] was more than 30 µM each time. Besides, the Drug uptake entry in [11] (BLD = below limit of detection) is recorded as “BLD”. Also, the BPR in data set [12] is on record as less than 0.06. The CLhep predicted in [13] is 80.7 mL/min/kg.
In turn, `COc1ccc(C(=O)NCc2nc(C)c(C)s2)cc1OC1CCN(C(C)C)CC1` had an IC50 in data set [3] of 0.76 µM.
For `COc1ccc(C(=O)NCc2cc(C(C)C)no2)cc1O`, the Activity in data set [1] came to 86.2%; in data set [2], 99.4%.
For `COc1ccc(C(=O)NCc2cc(C(C)C)no2)cc1OC(C)CN(C)C` (centres undefined), the results for the Activity in [1] and in [2] were 59.7% and 28.2%, respectively.
`COc1ccc(C(=O)NC(C)Cc2cnccn2)cc1OC1CCN(C(C)C)CC1` (centres undefined): the IC50 in data set [3] came out at 4.47 µM.
As to `COc1ccc(C(=O)NCc2cc(C(C)C)no2)cc1OC1CCCN(C)C1` (centres undefined), the results for the Activity in data set [1] and in data set [2] were 51.7% and 18.4%, respectively. The IC50 was determined as 1.25 µM in data set [4] and 4.54 µM in [5].
With `COc1ccc(C(=O)NCc2cc(C(C)C)no2)cc1OC1CCN(C)CC1`, the Activity in [1] is 3.1%; in [2], -0.9%. The inhibition entry in data set [14] was “inactive”. Also, the Fu in data set [6] is 0.48. Besides, the IC50 in data set [7], in data set [8] and in [9] was more than 30 µM throughout. This molecule also came in with a Drug uptake in [11] of 3.3 ng/g. Moreover, the BPR in data set [12] is 0.28. Besides, the CLhep predicted in [13] is 29.4 mL/min/kg.
In data set [3], `COc1ccc(C(=O)NC2CCc3ccccc32)cc1OC1CCN(C(C)C)CC1` (centres undefined) yielded an IC50 of 3.36 µM.
As for `COc1ccc(C(=O)NCc2nc(C)cs2)cc1OC1CCN(C(C)C)CC1`, the Activity was 42.2% in data set [1] and 13.2% in [2]. For the same molecule, the IC50 in data set [4] was found to be 3.48 µM; in data set [5], 1.02 µM.
On to `COc1ccc(C(=O)NCc2ccncn2)cc1OC1CCN(C(C)C)CC1`, for which the Activity in [1] was found to be 87.7%; in data set [2] it was 71.8%.
For `COc1ccc(C(=O)NCc2cc(C(C)C)no2)cc1OCC(C)C`, in that order: 99.8% and 89.4%.
In turn, `CCc1cc(CNC(=O)c2ccc(OC)c(OC3CCN(C(C)C)CC3)c2)on1` had an IC50 in data set [3] of 0.6 µM.
For the molecule `COc1ccc(C(=O)NC(C)Cc2ccccn2)cc1OC1CCN(C(C)C)CC1` (centres undefined), the Activity was found to be 46.3% in [1] and 20.4% in [2]. The IC50 in [4] is 4.12 µM; in data set [5] it was 1.73 µM; in [7] it was more than 30 µM; in data set [8], more than 30 µM; in data set [9], 27.1 µM; in data set [10] it was 28.2 µM. Also, the Fu in data set [6] was found to be 0.35. The same molecule came in with a Drug uptake in [11] of 4 ng/g. Besides, the BPR in data set [12] came out at 1.1. Further, the CLhep predicted in [13] is 48.8 mL/min/kg.
Take `CCn1nc(C)c(CNC(=O)c2ccc(OC)c(OC3CCN(C(C)C)CC3)c2)c1C`: the Activity was 45.8% in data set [1] and 15.9% in [2]. Also, the IC50 in data set [4] was 1.58 µM; in data set [5], 0.91 µM; in data set [7], more than 30 µM; in data set [8], more than 30 µM; in [9], 6.7 µM; in data set [10], more than 30 µM. Moreover, the Fu in data set [6] came out at 0.57. The Drug uptake result in [11] (BLD = below limit of detection) is listed as “BLD”. Also, in data set [12], the BPR is on record as less than 0.05. In data set [13], the CLhep predicted was 22.4 mL/min/kg.
Consider `CC(NC(=O)c1ccc(OC2CCN(Cc3ccccn3)CC2)cc1)c1ccccc1` (centres undefined), for which half-maximal inhibition in [3] (IC50) required 1.26 µM.
For the molecule `CCCN1CCC(Oc2cccc(C(=O)NCCc3ccccc3)c2)CC1`, the IC50 in [3] was found to be 4.22 µM.
`COc1ccc(C(=O)NCc2cnn(C)c2)cc1OC1CCN(C(C)C)CC1`: the Activity turned out to be 64.8% in [1] and 47.5% in [2].
Consider `COc1ccc(C(=O)NCc2cc(C(C)C)no2)cc1OCCN1CCCCC1`, for which the results for the Activity in data set [1] and in [2] were 38.3% and -0.2%, respectively. For the same molecule, the IC50 in data set [4] was 0.76 µM; in data set [5], 0.53 µM; in data set [7] it was more than 30 µM; in data set [8], more than 30 µM; in data set [9], more than 30 µM; in data set [10], more than 30 µM. For the same molecule, the Fu in data set [6] is recorded as 0.71. The Drug uptake in data set [11] amounted to 1.8 ng/g. In addition, the BPR in [12] is 0.07. Also, in data set [13], the CLhep predicted is 58.4 mL/min/kg.
On to `COc1ccc(C(=O)NCCN2CCCC2)cc1OC1CCN(C(C)C)CC1`, for which the Activity was determined as 37.4% in data set [1] and 9.9% in data set [2]. Also, the results for the IC50 in data set [4] and in data set [5] were 2.13 µM and 1.56 µM, respectively.
In the same order, the values of `CCn1cc(CNC(=O)c2ccc(OC)c(OC3CCN(C(C)C)CC3)c2)cn1` are 41.8%, 24.8%, 9.27 µM and 1.85 µM.
In the case of `COc1ccc(C(=O)NCc2cc(C(C)C)no2)cc1OC1CCCCC1`, the Activity in data set [1] came out at 83.2%; in data set [2], 87.6%.
In the case of `COc1ccc(C(=O)NCc2csc(C)n2)cc1OC1CCN(C(C)C)CC1`, the Activity came out at 42.6% in [1] and 18.9% in [2]. Besides, the IC50 in data set [4] is 4.93 µM; in data set [5] it was 1.64 µM; in data set [7], 10.3 µM; in [8], more than 30 µM; in [9], more than 30 µM; in data set [10], more than 30 µM. Besides, the Fu in [6] is 0.39. In data set [11], the Drug uptake was determined as 1.5 ng/g. For the same molecule, the BPR in data set [12] is recorded as 0.19. In addition, the CLhep predicted in data set [13] is 82.4 mL/min/kg.

Usually IC50 stands for the concentration that gives 50% inhibition.
